The text below walks through data of PMC8850458, “The AUTOTAC chemical biology platform for targeted protein degradation via the autophagy-lysosome system” (Nature Communications, 2022).

Molecules are shown by their SMILES. “And” between values parts separate entries of the source, which are not always exact repeats. Equal values may be shown once. Read-outs that look alike come from different tables or passages of the source. Where only a bound is given, the exact number is not on record here.

Test [1] addresses tauP301L (Homo sapiens, UniProt P10636, P618L). The experiment in a line: In vitro pulldown assay of biotinylated PBA. Format: binding. To be noted: tauP301L stably expressed in SH-SY5Y cells. On the procedure: A set of synthetic 12-mer peptides corresponding to the N-terminal sequences of the V-BiP (V[19]-[…]-biotin) and V-RGS4 (V^2-[…]-biotin) was C-terminally biotin-conjugated. Alternatively, biotinylated versions of YOK-1304, YT-8-8, YTK-1105, YOK-2204, and PBA were synthesized. To cross-link the above peptides with resin beads, biotin-conjugated peptides, and small molecule were mixed with high-capacity streptavidin agarose resin (Thermo Fisher Scientific) at a ratio of 0.5 mg of peptide per 1 mL of settled resin and incubated on a rotator at 4 °C overnight. After washing five times with PBS, the peptide/small molecule-bead conjugates were diluted with PBS at a 1:1 ratio. To prepare protein extracts, cells were collected by centrifugation and lysed by freezing and thawing at least 10 times in hypotonic buffer [10 mM KCl, 1.5 mM MgCl2, and 10 mM HEPES (pH 7.9)] with a protease inhibitor mix (Sigma). After centrifugation at 15,000 rpm 4 °C for 15 min, proteins were quantified using a BCA protein assay kit (Thermo Fisher Scientific). Total protein (200 μg) diluted in 300 μL of binding buffer [0.05% Tween-20, 10% glycerol, 0.2 M KCl, and 20 mM HEPES (pH 7.9)] were mixed with 50 μL of peptide/small molecule-bead resin and incubated at 4 °C for 2 h on a rotator. The protein-bound beads were collected by centrifugation at 2400 × g for 3 min and washed five times with binding buffer. […]

The test system of test [2] is p62^+ERβ^+ puncta. The experiment in a line: ICC of ERβ puncta co-localization in ACHN cells. Format: cell-based. The settings on record: 24 h; for ERβ-LC3 colocalization, cells of 50 cells counted: single experiments. On the procedure: Cells were cultured on coverslips coated with poly-L-lysine (Sigma) to observe cellular localization of proteins. Using 4% paraformaldehyde in PBS (pH 7.4), the cells were fixed for 15 min at room temperature and washed three times for 5 min with PBS. After fixing, the cells were permeabilized with 0.5% Triton X-100 in PBS solution for 15 min and washed three times with PBS for 5 min. The cells were blocked containing 2% BSA in PBS solution for 1 h at room temperature. Subsequently, the cells were incubated with primary antibody diluted in 2% BSA/PBS solution overnight at 4 °C, followed by washing the cells three times for 10 min with PBS and incubated with Alexa Fluor-conjugated secondary antibody diluted in 2% BSA/PBS for 30 min at room temperature. Using a DAPI-containing mounting medium (Vector Laboratories), the coverslips were mounted on glass slides. Confocal images were taken by laser scanning confocal microscope 510 Meta (Zeiss) and analyzed by Zeiss LSM Image Browser (ver. 4.2.0.121). […] Quantification results are shown as mean ± S.D. or S.E.M. of three independent experiments

Test [3] has as its target T1, estrogen receptor beta (ERβ) (Homo sapiens, UniProt Q92731).
T1 construct: Targeted autophagic degradation of endogenous oncoproteins by AUTOTAC; endogenous in cells; host or cells: HEK293T, ACHN, MCF7
The experiment in a line: Western blot degradation of ERβ. Format: cell-based. To be noted: for ERβ band normalized to control, AVG % / ERβ band (PHTPP) normalized to GAPDH and to control, percentage: 293T; for ERβ band normalized to control, AVG % / ERβ band (PHTPP) normalized to GAPDH and to control, percentage / DC50: 24 h; for ERβ band (PHTPP) normalized to GAPDH and to control, percentage: single experiments. On the procedure: Adherent cells were washed with phosphate-buffered saline (PBS) and cell pellets were lysed in SDS-based sample buffer (277.8 mM Tris-HCI, pH 6.8, 4.4% LDS, 44.4% (v/v) glycerol) containing beta-mercaptoethanol. Alternatively, cell pellets or protein supernatants were lysed in 5X Laemmli sample buffer. Whole-cell lysates were separated using SDS-PAGE, and transferred onto polyvinyllidene difluoride membranes at 100 V for 2 h at 4 °C. The membrane was incubated with a blocking solution consisting 4% skim milk in PBS solution for 30 min at room temperature and incubated with primary antibodies overnight, followed by incubation with host-specific HRP-conjugated secondary antibodies (1:10000 dilution). For signal detection, the membrane was developed with a mixture of ECL solution (Thermo Fisher Scientific) using X-ray films. Densitometry of developed bands was measured and analyzed with ImageJ (NIH, Bethesda).
(A western blot detects proteins with antibodies after separation by electrophoresis.)

T1 sequence (Q92731 whole entry): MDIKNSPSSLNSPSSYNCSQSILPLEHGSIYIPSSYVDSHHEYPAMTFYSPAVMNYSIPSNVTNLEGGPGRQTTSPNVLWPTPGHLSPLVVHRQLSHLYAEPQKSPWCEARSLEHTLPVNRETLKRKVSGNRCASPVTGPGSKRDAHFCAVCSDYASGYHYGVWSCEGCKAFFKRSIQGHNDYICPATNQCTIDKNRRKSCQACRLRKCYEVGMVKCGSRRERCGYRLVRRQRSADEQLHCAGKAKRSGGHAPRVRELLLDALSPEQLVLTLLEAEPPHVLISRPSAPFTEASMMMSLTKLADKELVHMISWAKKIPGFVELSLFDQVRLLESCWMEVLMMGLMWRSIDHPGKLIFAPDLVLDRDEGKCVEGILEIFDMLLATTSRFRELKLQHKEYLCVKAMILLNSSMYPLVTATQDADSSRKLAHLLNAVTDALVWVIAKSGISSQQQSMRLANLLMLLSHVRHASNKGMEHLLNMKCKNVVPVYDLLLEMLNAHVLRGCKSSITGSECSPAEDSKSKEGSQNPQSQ
Sequence of tauP301L (P10636 1-441 isoform P10636-8 P301L): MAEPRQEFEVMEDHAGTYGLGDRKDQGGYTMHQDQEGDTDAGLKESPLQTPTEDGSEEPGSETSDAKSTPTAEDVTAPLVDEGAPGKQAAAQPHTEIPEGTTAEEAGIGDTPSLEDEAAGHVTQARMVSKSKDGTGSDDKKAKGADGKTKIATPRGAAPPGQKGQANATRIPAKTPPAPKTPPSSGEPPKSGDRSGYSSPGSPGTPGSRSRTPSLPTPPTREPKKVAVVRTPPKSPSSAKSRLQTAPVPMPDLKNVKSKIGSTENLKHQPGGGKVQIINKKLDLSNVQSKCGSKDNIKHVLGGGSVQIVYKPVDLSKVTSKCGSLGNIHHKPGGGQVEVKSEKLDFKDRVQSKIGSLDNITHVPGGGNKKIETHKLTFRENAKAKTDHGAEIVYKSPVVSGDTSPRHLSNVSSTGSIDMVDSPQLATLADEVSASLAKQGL

With `O=C(O)CCCc1ccccc1` [4-PBA, 4-phenylbutyric acid], in test [1], the “binding of tauP301L in pulldown” value is given as “bound”.
As for `O[C@H](CNCCOCCOCCOc1ccc(-c2c(-c3ccccc3)nn3c(C(F)(F)F)cc(C(F)(F)F)nc23)cc1)COc1ccc(OCc2ccccc2)c(OCCCc2ccccc2)c1` [PHTPP-1304], the “ERβ-LC3 colocalization, AVG of cells of 50” value in test [2] (0.5uM) was 5.667; in test [2] (2.5uM) it was 12.6667; in test [2] (10uM + HCQ) it was 39; in test [2] (10uM), 29. In addition, the “ERβ-LC3 colocalization, percentage AVG” value in test [2] (0.5uM) stood at 11.3333%; in test [2] (2.5uM), 25.3333%; in test [2] (10uM + HCQ) it was 78%; in test [2] (10uM) it was 58%. In addition, the “ERβ-LC3 colocalization, cells of 50 cells counted” value in test [2] (10uM + HCQ) is 34 and 42 and 41; in test [2] (10uM) it was 24 and 34 and 29. Also, the “ERβ band normalized to control, AVG %” value turned out to be 52.5102% in test [3] (1nM); 17.5552% in test [3] (10nM); 4.912% in test [3] (100nM); 9.556% in test [3] (1uM); 4.237% in test [3] (2.5uM). Also, the “ERβ band (PHTPP) normalized to GAPDH and to control, percentage” value in test [3] (1nM) is 58.6192% and 52.1272% and 46.7843%; in test [3] (10nM) it was 19.5411% and 16.0071% and 17.1174%; in test [3] (100nM), 9.1943% and 5.039% and 0.5025%; in test [3] (2.5uM), 4.5765% and 5.279% and 2.856%. The DC50 is below 100 nM in test [3] (ACHN renal carcinoma cells, read-out: DC50 of ERβ); ~2 nM and 1.48 nM in test [3] (HEK293T cells, read-out: DC50 (half-degrading concentration) of ERβ); below 100 nM in test [3] (MCF-7 breast cancer cells, read-out: DC50 of ERβ). For the same compound, the “Dmax, 24 hr (concentration of maximal clearance at the 24 h mark) of ERβ” value in test [3] (HEK293T cells) lay in the range of 10 to 100 nM. Also, in test [3] (HEK293T, 0.1 μM 24 h, siRNA 40 nM 48 h), the “degradation of ERβ under RNA interference of either p62 or ATG5” value was “completely abolished”. Also, in test [3] (MCF7, MG132 1 μM, compound 500 nM 24 h, then washout), the “persistence of ERβ degradation post-washout” value was “at least 8 h”. Also, in test [3] (MCF7 cells, proteasomal inhibition (MG132 1 μM, 24 h)), the “DC50 and Dmax values of ERβ degradation” value is “subnanomolar”.
